Test [1] deals with 4T1-Luc. The test is described as follows: Antitumor activity against mouse 4T1-Luc cells xenografted in BALB/C mouse assessed as reduction in tumor growth at 30 to 60 mg/kg, po qd measured after 10 days by IVIS analysis. As to conditions: dose 30-60 mg/kg, time 10.0 day. Format: functional, organism-based.
Test [2] relates to 4T1. The test is described as follows: Induction of apoptosis in 4T1 cells assessed as early apoptotic cells at 5 uM incubated for 48 hrs by Annexin V-FITC/PI staining based flow cytometry (reference value: 0.32 %). Format: functional, Mus musculus. (Flow cytometry measures light scatter and fluorescence of single cells or particles in a stream.)
In test [3] the test system is MCF7. Briefly: Induction of cell cycle arrest in human MCF7 cells at G2/M phase assessed as decrease in cyclin B1 level incubated for 24 hrs by Western blot analysis. Format: functional, cell-based. As to conditions: dose <= 3.0 µM.
Test [4] relates to A549. The test is described as follows: Antiproliferative activity against human A549 cells assessed as inhibition of cell viability upto 10 uM incubated for 72 hrs by MTT assay. The test is classed as functional, cell-based. (In general: Tetrazolium dyes change colour on reduction, which living cells bring about.)
In test [5] the test system is HCT-116. Briefly: Antiproliferative activity against human HCT-116 cells assessed as inhibition of cell viability upto 10 uM incubated for 72 hrs by MTT assay. The test is classed as functional, cell-based.
Test [6] addresses Proto-oncogene tyrosine-protein kinase Src (Homo sapiens) (UniProt P12931). The test is described as follows: Inhibition of human cSRC at 0.1 uM by KINOMEscan assay relative to control.
The target of test [7] is Angiopoietin-1 receptor (Homo sapiens) (UniProt Q02763). Briefly: Inhibition of human Tie2 at 1 uM by KINOMEscan assay relative to control.
Chain of Angiopoietin-1 receptor (Homo sapiens) (Q02763 whole entry): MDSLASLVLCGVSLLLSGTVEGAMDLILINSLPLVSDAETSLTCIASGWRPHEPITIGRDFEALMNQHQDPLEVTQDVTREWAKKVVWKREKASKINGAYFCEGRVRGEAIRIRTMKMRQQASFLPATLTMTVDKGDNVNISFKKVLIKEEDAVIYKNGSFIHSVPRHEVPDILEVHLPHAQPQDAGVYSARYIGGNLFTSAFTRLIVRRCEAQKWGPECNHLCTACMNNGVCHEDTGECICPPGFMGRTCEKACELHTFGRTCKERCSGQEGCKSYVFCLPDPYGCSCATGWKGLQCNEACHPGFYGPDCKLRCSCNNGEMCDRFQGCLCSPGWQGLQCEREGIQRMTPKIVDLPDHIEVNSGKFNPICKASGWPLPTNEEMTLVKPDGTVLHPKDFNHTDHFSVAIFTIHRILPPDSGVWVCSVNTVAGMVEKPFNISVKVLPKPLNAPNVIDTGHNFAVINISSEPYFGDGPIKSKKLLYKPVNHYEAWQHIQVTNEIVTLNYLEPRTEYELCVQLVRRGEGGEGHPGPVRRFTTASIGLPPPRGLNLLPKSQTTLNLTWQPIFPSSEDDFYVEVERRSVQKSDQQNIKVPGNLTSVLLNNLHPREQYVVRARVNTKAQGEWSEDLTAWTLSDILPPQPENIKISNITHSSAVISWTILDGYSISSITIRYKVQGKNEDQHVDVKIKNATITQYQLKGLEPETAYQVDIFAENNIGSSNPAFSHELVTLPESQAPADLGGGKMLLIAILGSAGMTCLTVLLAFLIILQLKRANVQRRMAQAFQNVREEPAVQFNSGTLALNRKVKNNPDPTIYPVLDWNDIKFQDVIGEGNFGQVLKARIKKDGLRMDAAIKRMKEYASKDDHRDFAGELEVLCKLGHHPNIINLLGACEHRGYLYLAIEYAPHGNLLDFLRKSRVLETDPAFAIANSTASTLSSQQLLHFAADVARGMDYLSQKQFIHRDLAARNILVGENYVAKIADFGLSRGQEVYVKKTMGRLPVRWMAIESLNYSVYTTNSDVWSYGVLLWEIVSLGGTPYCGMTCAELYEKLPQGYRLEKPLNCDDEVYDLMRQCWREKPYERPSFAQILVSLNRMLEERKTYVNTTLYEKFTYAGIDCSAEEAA
The target in test [8] is Tyrosine-protein kinase Yes (Homo sapiens) (UniProt P07947). The test is described as follows: Inhibition of human Yes at 1 uM by KINOMEscan assay relative to control.
Chain of Tyrosine-protein kinase Yes (Homo sapiens) (P07947 2-543 limits assumed): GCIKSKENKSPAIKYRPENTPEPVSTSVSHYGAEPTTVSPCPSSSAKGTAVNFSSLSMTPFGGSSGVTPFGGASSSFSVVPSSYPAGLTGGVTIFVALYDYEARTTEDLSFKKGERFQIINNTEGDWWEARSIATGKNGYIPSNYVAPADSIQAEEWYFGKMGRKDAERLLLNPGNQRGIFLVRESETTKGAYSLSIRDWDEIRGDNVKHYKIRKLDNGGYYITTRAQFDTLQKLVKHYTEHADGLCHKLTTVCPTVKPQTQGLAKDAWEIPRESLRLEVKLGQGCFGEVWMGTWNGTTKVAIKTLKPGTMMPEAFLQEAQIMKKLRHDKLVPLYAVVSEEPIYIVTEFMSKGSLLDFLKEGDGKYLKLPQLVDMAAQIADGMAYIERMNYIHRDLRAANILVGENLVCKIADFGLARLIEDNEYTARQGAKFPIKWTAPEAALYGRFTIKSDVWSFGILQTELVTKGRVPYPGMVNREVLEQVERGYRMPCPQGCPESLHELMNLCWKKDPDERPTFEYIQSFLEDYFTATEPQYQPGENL
Test [9] has as its target Tyrosine-protein kinase JAK2 (Homo sapiens) (UniProt O60674). The test is described as follows: Inhibition of human JAK2 at 1 uM by KINOMEscan assay relative to control.

Calls of active or inactive are those of the source. The rule behind the calls is not given here.

Chain of Tyrosine-protein kinase JAK2 (Homo sapiens) (O60674 whole entry): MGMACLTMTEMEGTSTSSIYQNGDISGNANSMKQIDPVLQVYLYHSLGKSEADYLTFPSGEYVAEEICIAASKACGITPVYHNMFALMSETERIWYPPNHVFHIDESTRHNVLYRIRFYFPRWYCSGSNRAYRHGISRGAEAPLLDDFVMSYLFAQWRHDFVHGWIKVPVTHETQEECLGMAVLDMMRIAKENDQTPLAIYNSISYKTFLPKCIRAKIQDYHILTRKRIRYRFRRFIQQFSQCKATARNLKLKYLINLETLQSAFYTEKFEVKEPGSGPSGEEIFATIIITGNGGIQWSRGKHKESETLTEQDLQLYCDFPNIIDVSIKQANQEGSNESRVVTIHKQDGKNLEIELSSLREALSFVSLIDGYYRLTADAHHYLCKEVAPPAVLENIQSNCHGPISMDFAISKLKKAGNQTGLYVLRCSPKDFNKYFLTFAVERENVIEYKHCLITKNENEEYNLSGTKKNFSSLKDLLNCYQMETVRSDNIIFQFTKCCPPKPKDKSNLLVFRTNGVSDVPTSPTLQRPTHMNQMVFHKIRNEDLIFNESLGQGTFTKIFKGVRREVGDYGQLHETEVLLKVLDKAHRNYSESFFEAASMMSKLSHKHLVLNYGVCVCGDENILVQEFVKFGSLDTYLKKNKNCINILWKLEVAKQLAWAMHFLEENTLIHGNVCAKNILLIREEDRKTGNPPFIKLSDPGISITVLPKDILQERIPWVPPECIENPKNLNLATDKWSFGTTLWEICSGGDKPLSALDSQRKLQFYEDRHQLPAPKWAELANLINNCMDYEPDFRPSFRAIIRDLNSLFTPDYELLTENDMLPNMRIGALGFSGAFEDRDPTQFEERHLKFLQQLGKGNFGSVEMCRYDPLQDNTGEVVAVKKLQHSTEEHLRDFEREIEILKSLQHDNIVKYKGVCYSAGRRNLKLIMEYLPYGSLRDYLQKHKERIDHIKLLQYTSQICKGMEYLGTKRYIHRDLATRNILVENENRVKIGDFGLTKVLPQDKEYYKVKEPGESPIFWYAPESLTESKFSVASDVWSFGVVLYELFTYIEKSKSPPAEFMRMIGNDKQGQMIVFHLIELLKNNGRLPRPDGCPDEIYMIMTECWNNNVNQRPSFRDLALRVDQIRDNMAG
Chain of Proto-oncogene tyrosine-protein kinase Src (Homo sapiens) (P12931 2-536 limits assumed): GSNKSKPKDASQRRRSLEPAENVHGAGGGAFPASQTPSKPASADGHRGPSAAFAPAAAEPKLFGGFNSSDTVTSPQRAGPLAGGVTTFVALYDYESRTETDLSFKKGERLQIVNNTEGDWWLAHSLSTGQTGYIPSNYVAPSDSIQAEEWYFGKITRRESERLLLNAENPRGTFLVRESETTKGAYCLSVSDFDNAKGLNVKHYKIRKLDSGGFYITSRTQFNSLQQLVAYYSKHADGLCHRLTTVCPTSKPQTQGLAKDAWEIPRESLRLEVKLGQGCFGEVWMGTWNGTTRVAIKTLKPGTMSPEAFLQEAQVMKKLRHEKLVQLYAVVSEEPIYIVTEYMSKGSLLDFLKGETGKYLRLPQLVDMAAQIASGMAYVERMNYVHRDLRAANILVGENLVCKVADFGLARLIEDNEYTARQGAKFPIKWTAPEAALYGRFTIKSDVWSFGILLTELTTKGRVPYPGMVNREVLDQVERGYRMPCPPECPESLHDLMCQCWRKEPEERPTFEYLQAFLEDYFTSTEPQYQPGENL

Take `CN1CCN(c2ccc(Nc3nc(-n4nc(N)c5ccccc54)c4cc[nH]c4n3)cc2)CC1`: the outcome in test [1] was Active. Besides, the Activity in test [2] is 2.71%; in test [3], “Dose-Dependent Effect”. Moreover, the inhibition entry in test [4] and in [5] was “Active” each time. Besides, the inhibition (as a rule, the percentage by which the read-out fell short of the control) in test [6] turned out to be 52%; in [7] it was 92%; in test [8] it was 100%; in test [9], 95%.

These data come from ChEMBL document CHEMBL5385847, “Design, synthesis and biological evaluation of a new class of 7H-pyrrolo[2,3-d]pyrimidine derivatives as Mps1 inhibitors for the treatment of breast cancer” (Eur J Med Chem, 2023).
